Measured values published in patent US9624247B2, “Pyrazolo-pyrrolidin-4-one derivatives as bet inhibitors and their use in the treatment of disease” (NOVARTIS AG, priority 2013, dated 2017).

System: MV-4-11 cells
Assay: Cell growth inhibition assay (CellTiter-Glo), MV-4-11
Assay type: cell-based, human
Details: MV-4-11, 4 days; for GI50: Homo sapiens, MV4-11, 96 h, half-maximal growth inhibition; for MV-4-11 TGI: total growth inhibition
How it was run: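 Leukemia cells were exposed for 4 days at 37 °C to 3-fold dilution series from 10 μM (0.1% DMSO), then viable cells were quantified by CellTiter-Glo ATP luminescence. Signal was corrected for background and a day-0 plate, with vehicle set at 100% and medium-only at −100%. IC50 and TGI were obtained by four-parameter fit.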

SMILES | GI50 | MV-4-11 TGI
COCCn1nc(C2CC2)c2c1C(c1ccc(Cl)cc1)N(c1cc(C)c3nnc(C)n3c1)C2=O (racemic) [Example 4, 6-(4-chlorophenyl)-3-cyclopropyl-5-(3,8-dimethyl-[1,2,4]triazolo[4,3-a]pyridin-6-yl)-1-(2-methoxyethyl)-5,6-dihydropyrrolo[3,4-c]pyrazol-4(1H)-one] | 9.36 nM | 20.8 nM
Cc1nnc2c(NC(=O)OC(C)(C)C)cc(N3C(=O)c4c(C5CC5)nn(C)c4C3c3ccc(Cl)cc3)cn12 (stereo not shown) [Example 27, tert-butyl (6-(6-(4-chlorophenyl)-3-cyclopropyl-1-methyl-4-oxopyrrolo[3,4-c]pyrazol-5(1H,4H,6H)-yl)-3-methyl-[1,2,4]triazolo[4,3-a]pyridin-8-yl)carbamate] | 11.1 nM | 22.6 nM
COc1cc(N2C(=O)c3c(C4CC4)nn(C)c3C2c2ccc(Cl)cc2)cc2c1nnn2C (stereo not shown) [Example 6] | 44.5 nM | 90.25 nM
Cc1cc(N2C(=O)c3c(C4CC4)nn(C)c3[C@H]2c2ccc(Cl)cc2)cn2c(C(F)F)nnc12 [Example 7, (R)-6-(4-chlorophenyl)-3-cyclopropyl-5-(3-(difluoromethyl)-8-methyl-[1,2,4]triazolo-[4,3-a]pyridin-6-yl)-1-methyl-5,6-dihydropyrrolo[3,4-c]pyrazol-4(1H)-one] | 2.45 nM | 6.275 nM
CCOC(=O)Nc1cc(N2C(=O)c3c(C4CC4)nn(C)c3C2c2ccc(Cl)cc2)cn2c(C)nnc12 (stereo not shown) [Example 29, ethyl (6-(6-(4-chlorophenyl)-3-cyclopropyl-1-methyl-4-oxopyrrolo[3,4-c]pyrazol-5-(1H,4H,6H)-yl)-3-methyl-[1,2,4]triazolo[4,3-a]pyridin-8-yl)carbamate] | 1.13 nM | 1.97 nM
Cc1cc(N2C(=O)c3c(C4CC4)nn(C)c3[C@H]2c2ccc(Cl)cc2)cn2c(C)nnc12 [Example 2, (R)-6-(4-chlorophenyl)-3-cyclopropyl-5-(3,8-dimethyl-[1,2,4]triazolo[4,3-a]pyridin-6-yl)-1-methyl-5,6-dihydropyrrolo[3,4-c]pyrazol-4(1H)-one] | 4.31 nM | 11.21 nM
COCCn1nc(C2CC2)c2c1C(c1ccc(Cl)cc1)N(c1cc(C)c3nnc(CF)n3c1)C2=O (stereo not shown) [Example 18, 6-(4-chlorophenyl)-3-cyclopropyl-5-(3-(fluoromethyl)-8-methyl-[1,2,4]triazolo[4,3-a]-pyridin-6-yl)-1-(2-methoxyethyl)-5,6-dihydropyrrolo[3,4-c]pyrazol-4(1H)-one] | 6.73 nM | 13.25 nM
Cc1cc(N2C(=O)c3c(C4CC4)nn(C)c3C2c2ccc(Cl)cc2)cn2c(CF)nnc12 (racemic) [Example 16, 6-(4-chlorophenyl)-3-cyclopropyl-5-(3-(fluoromethyl)-8-methyl-[1,2,4]triazolo[4,3-a]-pyridin-6-yl)-1-methyl-5,6-dihydropyrrolo[3,4-c]pyrazol-4(1H)-one] | 6.07 nM | 11.3 nM
Cc1cc(N2C(=O)c3c(C4CC4)nn(C)c3C2c2ccc(Cl)cc2)cn2c(C)nnc12 (stereo not shown) [Example 1, 6-(4-chlorophenyl)-3-cyclopropyl-5-(3,8-dimethyl-[1,2,4]triazolo[4,3-a]pyridin-6-yl)-1-methyl-5,6-dihydropyrrolo[3,4-c]pyrazol-4(1H)-one] | 5.42 nM | 10.7 nM
COc1cc(N2C(=O)c3c(C4CC4)nn(C)c3C2c2ccc(Cl)cc2)cn2c(C)nnc12 (racemic) [Example 5, 6-(4-chlorophenyl)-3-cyclopropyl-5-(8-methoxy-3-methyl-[1,2,4]triazolo[4,3-a]pyridin-6-yl)-1-methyl-5,6-dihydropyrrolo[3,4-c]pyrazol-4(1H)-one] | 64.9 nM | 104 nM
Cc1cc(N2C(=O)c3c(C4CC4)nn(C)c3C2c2ccc(Cl)cc2)cn2c(C(F)F)nnc12 (racemic) [Example 3, 6-(4-chlorophenyl)-3-cyclopropyl-5-(3-(difluoromethyl)-8-methyl-[1,2,4]triazolo[4,3-a]pyridin-6-yl)-1-methyl-5,6-dihydropyrrolo[3,4-c]pyrazol-4(1H)-one] | 9.49 nM | 23.45 nM
